This is an account of results in ChEMBL document CHEMBL4229428, “Design, synthesis, X-ray studies, and biological evaluation of novel BACE1 inhibitors with bicyclic isoxazoline carboxamides as the P3 ligand” (Bioorg Med Chem Lett, 2018).

By EC50 is commonly meant the concentration that produces a half-maximal response. A high value points to a need for much substance. The term Ki denotes a measure of affinity in units of concentration, obtained from inhibition or displacement.

T1 sequence (P56817 whole entry): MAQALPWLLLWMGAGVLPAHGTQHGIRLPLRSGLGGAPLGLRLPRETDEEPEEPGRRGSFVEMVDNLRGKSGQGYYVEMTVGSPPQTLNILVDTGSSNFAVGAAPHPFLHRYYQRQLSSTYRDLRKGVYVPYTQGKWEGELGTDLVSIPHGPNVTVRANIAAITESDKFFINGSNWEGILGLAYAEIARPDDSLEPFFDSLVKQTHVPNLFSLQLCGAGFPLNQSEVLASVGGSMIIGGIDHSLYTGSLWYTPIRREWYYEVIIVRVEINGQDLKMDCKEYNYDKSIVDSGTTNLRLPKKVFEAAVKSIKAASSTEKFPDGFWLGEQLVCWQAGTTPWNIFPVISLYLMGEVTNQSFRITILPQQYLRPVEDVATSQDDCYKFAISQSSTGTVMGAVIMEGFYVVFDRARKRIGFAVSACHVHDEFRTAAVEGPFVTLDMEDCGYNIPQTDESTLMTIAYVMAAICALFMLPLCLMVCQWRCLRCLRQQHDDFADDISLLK

One experiment concerns the target T1, Beta-secretase 1 (Homo sapiens, UniProt P56817). The experiment can be described thus: Inhibition of BACE1 (unknown origin) by cell-based assay.
On to `CSC[C@H](NC(=O)C1=NO[C@@H]2OCC[C@H]12)C(=O)N[C@@H](CC(C)C)[C@@H](O)C[C@@H](C)C(=O)N[C@H](C(=O)NCC(C)C)C(C)C`, for which the EC50 is 343 nM.

The target of another experiment is T1, Beta-secretase 1. The experiment can be described thus: Inhibition of recombinant BACE1 (unknown origin) using fluorogenic substrate.
For `COc1cccc(CNC[C@@H](O)[C@H](Cc2ccccc2)NC(=O)[C@H](CS(C)(=O)=O)NC(=O)C2=NO[C@@H]3OCC[C@H]23)c1`, the Ki is 41100 nM.
On the same count and under the same terms, for `CC(C)CNC(=O)[C@@H](NC(=O)[C@H](C)C[C@H](O)[C@H](CC(C)C)NC(=O)[C@H](CS(C)(=O)=O)NC(=O)C1=NO[C@H]2OCC[C@@H]12)C(C)C` the value was 280 nM; for `CC(C)CNC(=O)[C@@H](NC(=O)[C@H](C)C[C@H](O)[C@H](CC(C)C)NC(=O)[C@H](CNC(=O)OC(C)(C)C)NC(=O)C1=NO[C@@H]2OCC[C@H]12)C(C)C`, 809 nM; for `CSC[C@H](NC(=O)C1=NO[C@@H]2OCC[C@H]12)C(=O)N[C@@H](CC(C)C)[C@@H](O)C[C@@H](C)C(=O)N[C@H](C(=O)NCC(C)C)C(C)C`, 10.9 nM.
Same read-out and setting: the same measure for `CC(C)CNC(=O)[C@@H](NC(=O)[C@H](C)C[C@H](O)[C@H](CC(C)C)NC(=O)[C@H](CS(C)(=O)=O)NC(=O)C1=NO[C@H]2OCCC[C@@H]12)C(C)C`: 630 nM; for `CSC[C@H](NC(=O)C1=NO[C@H]2OCC[C@@H]12)C(=O)N[C@@H](CC(C)C)[C@@H](O)C[C@@H](C)C(=O)N[C@H](C(=O)NCC(C)C)C(C)C`: 554 nM; for `CC(C)CNC(=O)[C@@H](NC(=O)[C@H](C)C[C@H](O)[C@H](CC(C)C)NC(=O)[C@H](CS(C)(=O)=O)NC(=O)C1=NO[C@@H]2OCCC[C@H]12)C(C)C`: 28.1 nM.
For `COc1cccc(CNC[C@@H](O)[C@H](Cc2ccccc2)NC(=O)[C@H](CS(C)(=O)=O)NC(=O)C2=NO[C@H]3OCC[C@@H]23)c1`, the Ki stood at 28800 nM.
Consider `CC(C)CNC(=O)[C@@H](NC(=O)[C@H](C)C[C@H](O)[C@H](CC(C)C)NC(=O)[C@H](CNC(=O)OC(C)(C)C)NC(=O)C1=NO[C@H]2OCC[C@@H]12)C(C)C`, for which the Ki worked out at 4120 nM.
On the same count and under the same terms, for `CC(C)CNC(=O)[C@@H](NC(=O)[C@H](C)C[C@H](O)[C@H](CC(C)C)NC(=O)[C@H](CS(C)(=O)=O)NC(=O)C1=NO[C@@H]2OCC[C@H]12)C(C)C` the value was 110 nM.
